Article PMC10034449, “FDA-approved Abl/EGFR/PDGFR kinase inhibitors show potent efficacy against pandemic and seasonal influenza A virus infections of human lung explants” (iScience, 2023)
Several values for one entry are separate records, joined by “and”; a condition that tells them apart may be missing. Equal entries are not always repeated.

Columns and labels:
NL09 or NL11 [1] = format: cell-based, influenza A virus
[2] = test system: NL11 viral polymerase activity; format: cell-based, influenza A virus
NL09 or NL11 [3] = format: cell-based, influenza A virus; remark: listed apart in the source
[4] = test system: A/Netherlands/602/09 (H1N1) replication complex (PB2, PB1, PA, NP); format: cell-based, influenza A virus
NFkBpS536 (NFkB p65) = format: cell-based, human
[5] = test system: NL09 viral polymerase activity; format: cell-based, influenza A virus
[6] = test system: human precision-cut lung slices (hPCLS); assay: Ex vivo cytotoxicity in hPCLS (LDH-Glo, LDH release); settings: 10xmax: DF 50 μM, BO 50 μM, SA 1.25 μM, up to 144 h
[7] = test system: A/NL/213/03 (H3N2) replication complex (PB2, PB1, PA, NP); format: cell-based, influenza A virus
PDGFRα vs PDGFRβ = test system: PDGFRα vs PDGFRβ; design: method as in PMID 19922818; settings: cited from earlier work
PAK3 = settings: 0.48 μM; cited from earlier work

In the case of CC#CC(=O)N1CCC[C@H]1c1nc(-c2ccc(C(=O)Nc3ccccn3)cc2)c2c(N)nccn12 [AC, Acalabrutinib], the “significance of titer reduction over the infection” value (from here on “significance of titer reduction”) (NL09 or NL11 [1]) is reported as “only significant at 24 and 48 hpi”, the “% Luminescence (relative to untreated / normalized to GFP)” value [2] is reported as 67% and the “effect on viral entry / virion localization” value (NL09 or NL11 [3]) is reported as “No significant changes were detectable”. For the same compound, the “% Luminescence (relative to untreated / normalized to GFP)” value [4] was 82%.
In the case of COc1cc(Nc2c(C#N)cnc3cc(OCCCN4CCN(C)CC4)c(OC)cc23)c(Cl)cc1Cl [BO, Bosutinib], the “significance of titer reduction” value (NL09 or NL11 [1]) is reported as “significant throughout the infections”, the “F-actin network” value (NL09 or NL11 [3]) is reported as “not detectable” and the “effect on viral entry / virion localization” value (NL09 or NL11 [3]) is reported as “no virus was detected”.
For CNC(=O)c1ccc(Nc2ncc(C(F)(F)F)c(NCc3nccnc3N(C)S(C)(=O)=O)n2)cc1 [DF, Defactinib], the “significance of titer reduction” value (NL09 or NL11 [1]) was “only significant at 24 and 48 hpi”, the viral titer reduction (NL09 or NL11 [1]) was “at least 10 fold” and the “reduction of polymerase reporter activity” value [2] was 13%. For the same compound, the “NFkB p65 phosphorylation, pNFkB p65 / panNFkB p65 ratio (rel. to untreated)” value (NFkBpS536 (NFkB p65)) was 64% and 68%, the “effect on viral entry / virion localization” value (NL09 or NL11 [3]) was “significant retention at the membrane and cell periphery” and the “reduction of polymerase reporter activity” value [5] was 20%. The “cytotoxicity (LDH release) relative to positive control” value [6] was greater than 20%.
In the case of C=CC(=O)N1CCC[C@@H](n2nc(-c3ccc(Oc4ccccc4)cc3)c3c(N)ncnc32)C1 [IB, Ibrutinib], the “significance of titer reduction” value (NL09 or NL11 [1]) is reported as “significant throughout the infections”, the viral titer reduction (NL09 or NL11 [1]) is reported as “more than 1,000 fold” and the “effect on viral entry / virion localization” value (NL09 or NL11 [3]) is reported as “significant retention at the membrane and cell periphery”.
With Cc1cn(-c2cc(NC(=O)c3ccc(C)c(Nc4nccc(-c5cccnc5)n4)c3)cc(C(F)(F)F)c2)cn1 [NI, Nilotinib] the “significance of titer reduction” value (NL09 or NL11 [1]) was “significant throughout the infections”, the viral titer reduction (NL09 or NL11 [1]) was “more than 1,000 fold” and the “% Luminescence (relative to untreated / normalized to GFP)” value [2] was 62% and 45%. The “% Luminescence (relative to untreated / normalized to GFP)” value [7] was 71% and 64%, the “effect on viral entry / virion localization” value (NL09 or NL11 [3]) was “No significant changes were detectable” and the “% Luminescence (relative to untreated / normalized to GFP)” value [5] was 50%. For the same compound, the “selectivity for PDGFRα than PDGFRβ” value (PDGFRα vs PDGFRβ) was greater than 25 fold and the “% Luminescence (relative to untreated / normalized to GFP)” value [4] was 73% and 61%.
With CN1CCN(CCOc2cc(OC3CCOCC3)c3c(Nc4c(Cl)ccc5c4OCO5)ncnc3c2)CC1 [SA, Saracatinib] the “% Luminescence (relative to untreated / normalized to GFP)” value [2] was 53%, the “% Luminescence (relative to untreated / normalized to GFP)” value [7] was 66% and the “effect on viral entry / virion localization” value (NL09 or NL11 [3]) was “No significant changes were detectable”. For the same compound, the “cytotoxicity (LDH release) relative to positive control” value [6] was greater than 20% and the “% Luminescence (relative to untreated / normalized to GFP)” value [4] was 68%.
For CCN(CC)CCNC(=O)c1c(C)[nH]c(/C=C2\C(=O)Nc3ccc(F)cc32)c1C [sunitinib], the “effect on PAK3 activity” value (PAK3) is listed as “not even a 30-fold higher concentration (0.48 μM) has an effect”.
For poly(IC), the “induction of NFkBpS536” value (NFkBpS536 (NFkB p65)) was “induced NFkBpS536”.
